A short description of this assay: T. brucei MetRS enzyme inhibitors, late-stage follow-up, biochemical, radioactivity, assay provider, round 2 (AID 1053198). The settings on record: purified enzyme, radiolabel aminoacylation, 120 min, stronger effect = higher value.

One may read the inhibition as the relative decrease from the control value, in per cent.

The source made the active and inactive calls. How the calls were made is not given here.

With `CCN(CC)C(=O)C(=O)c1cn(CC(=O)Nc2cc(Br)cc(C(F)(F)F)c2)c2ccccc12`, the inhibition (at 10 µM) is 101% and the inhibition (inhibition, at 1 µM) was determined as 95.8%.
In the same order, the values of `CCN(CC)C(=O)C(=O)c1cn(CC(=O)Nc2cc(Cl)cc(C(F)(F)F)c2)c2ccccc12` are 100% and 95.2%.
In the same order, the values of `CCN(CC)C(=O)C(=O)c1cn(CC(=O)Nc2cc(Oc3ccccc3)cc(C(F)(F)F)c2)c2ccccc12` are 98.3% and 95.6%.
In the same order, the values of `CCN(CC)C(=O)C(=O)c1cn(CC(=O)Nc2cc(C(F)(F)F)cc(C(F)(F)F)c2)c2ccccc12` are 100% and 90.3%.
With `CCN(CC)C(=O)C(=O)c1cn(CC(=O)Nc2cc(C)cc(C(F)(F)F)c2)c2ccccc12`, the inhibition (at 10 µM) is 100% and the inhibition (inhibition, at 1 µM) stood at 96.2%.
Taken in the same sequence, the figures for `CCN(CC)C(=O)C(=O)c1cn(CC(=O)Nc2cccc(C(F)(F)F)c2)c2cc(OC)ccc12` were 4.41% (inactive) and -4.41%.

(Values after PubChem BioAssay AID1053198 (The Scripps Research Institute Molecular Screening Center, 2014).)
